Measurements reported in patent publication US6767902B2, “Androgen as a male contraceptive and non-contraceptive androgen replacement” (The Population Council, Inc., priority 1997, dated 2004).

Key:
[1] = tested on: serum levels of LH, FSH, T and DHT; test: MENT Ac subcutaneous implants in healthy men for 28 days: serum hormone levels; assay type: in vivo, human
Procedure: (§1) Forty-five healthy, normal male subjects were selected for a study of the contraceptive effect of androgens alone. Subjects were treated over the course of four weeks, during which extensive blood work-ups were undertaken. The subjects were divided into three groups of 15 each. Group A received one subcutaneous implant, Group B received two subcutaneous implants and Group C received four subcutaneous implants. Implants remained in place for 28 consecutive days.
(§2) The total duration of the study was 42 days. Each man included in the study was assessed through a medical history and a complete general physical examination and a determination of general eligibility. Subjects were tested on a weekly basis for six consecutive weeks at approximately the same time each day. Day 1 was the date of the subdermal implant's insertion and Day 29 was removal. On the last day of the study, Day 43, subjects received a general physical examination, as well as an additional battery of blood tests. Blood samples for hormone immuno assays MENT (7 mL), FSH, LH and testosterone (5 mL for the last 3 hormones together) were obtained during pre-admission and each subsequent visit.
FIG. 2 illustrates the effect of MENT Ac implants on mean serum LH concentration. […] By suppressing LH, testosterone production is suppressed. […] A reduction in testosterone reduces or eliminates spermatogenesis. However, because androgen is being supplied, sexual function is generally maintained.
Finally, FIG. 3 illustrates the effect of MENT Ac implants on the mean serum FSH concentration. […] FSH stimulates germ cell production. If germ cells are present, but testosterone is insufficient, then spermatogenesis cannot take place and sperm cells will not be produced. Similarly, if FSH concentrations are low enough, germ cells will not be produced and spermatogenesis cannot take place irrespective of testosterone levels.

[2] = tested on: serum levels of LH, FSH and T; test: Multiple-dose daily i.m. injection of MENT in normal men for six days: serum hormone levels; assay type: in vivo, human
Procedure: Two multiple injection studies were undertaken in which groups of four normal, non-sterile men each received 1, 2 or 4 mg of MENT daily by intramuscular (i.m.) injection for six consecutive days (24 men, 12 in each study). The formulation in each injection included the appropriate amount of MENT suspended in 27.6 mg/mL of polyethylene glycol, 1.8 mg/mL of Tween 80 and 8.3 mg/mL of sodium chloride. Serum FSH, LH and testosterone levels were measured daily. The results are illustrated in FIGS. 7-12.
The values returned to the normal range by day 15-30 of the study period. With reference to FIG. 8 (open boxes connected by a line=1 mg, closed boxes connected by a line=2 mg, open circles connected by a line=4 mg) a dose of at least 4 mg was required to obtain serum levels of FSH below two international units (“IU”) per liter by day 6. This must be compared with the results obtained by the use of 1000 μg (1 mg) of the same androgen delivered by a subcutaneous implant as illustrated in FIGS. 2-4 and Example 1. Therefore, considerably more of this same androgen was required to obtain certain depressed serum levels of LH, FSH and testosterone in males when the androgen was administered through a once-a-day intramuscular injection when compared to continuous release implants. […] FIG. 7 illustrates the level of serum LH achieved in the first study and FIG. 9 illustrates the level of serum testosterone achieved. FIGS. 10-12 illustrate the levels of LH, FSH and testosterone realized by the same protocol at the second testing site. Both the data and the overall trends of both studies are largely the same.

prostate = conditions: in the potency ranges contemplated; cited from earlier work
[3] = MENT Ac subcutaneous implants in healthy men: serum MENT levels and in vivo release; set-up: species or system human
Procedure: as §1, §2

[4] = single implant, about 500 micrograms MENT Ac per day, about 28 days
[5] = two implants simultaneously, about 1,000 micrograms MENT Ac per day

C[C@@H]1CC2=CC(=O)CC[C@@H]2[C@H]2CC[C@]3(C)[C@@H](O)CC[C@H]3[C@@H]21 [MENT, 7α-methyl-19-nortestosterone]
levels of the metabolite DHT ([1]; MENT Ac implants, FIG. 5): actually decreased | result in terms of testosterone (contraceptive adequacy) ([2]; 1 mg MENT by i.m. injection once a day): inadequate for contraceptive purposes | contraceptive adequacy from serum testosterone (FIGS. 9 and 12) ([2]; 4 mg MENT by once-a-day i.m. injection): sufficient to ensure that some level of effective contraception is obtained | serum gonadotropins and testosterone levels ([2]; 1, 2 or 4 mg MENT daily i.m. for six days, both studies): gradual decrease | time at which serum gonadotropins and testosterone reached their lowest levels ([2]; 1, 2 or 4 mg MENT daily i.m., end of treatment): six | study day by which values returned to the normal range ([2]; after 1, 2 or 4 mg MENT daily i.m. for six days): 15 to 30 days | dose required to obtain serum levels of FSH below two IU per liter by day 6 ([2]; daily i.m. injection, first study, FIG. 8): at least 4 mg | stimulation of the prostate (prostate): stimulates the prostate to a much lower degree

C[C@]12CC[C@H]3[C@@H](CCC4=CC(=O)CC[C@@]43C)[C@@H]1CC[C@@H]2O [testosterone, reference compound]
stimulation of the prostate (prostate): can overstimulate the prostate

CC(=O)O[C@H]1CC[C@H]2[C@H]3[C@H](CC[C@]12C)[C@H]1CCC(=O)C=C1C[C@H]3C [MENT Ac]
mean serum LH concentration ([1]; 2 or 4 implants (500 micrograms each), day 8): nearly undetectable levels of LH | mean serum LH concentration ([1]; first post implant visit on day 8, one, two or four implants): dropped significantly | levels of LH, FSH and testosterone ([1]; four 500 microgram per day implants simultaneously): very comparable to those obtained at the 1000 microgram per day level | mean serum FSH concentration ([1]; one, two or four implants): significant impact on the serum FSH concentration | mean serum T concentration (testosterone) ([1]; single implant): much reduced levels of testosterone | daily blood levels of FSH (average) [1, 4]: above 2 IU/L | daily blood levels of LH (average) [1, 4]: below 2 IU/L | daily blood levels of testosterone [1, 4]: about 5.0 nmol/liter | daily blood levels of FSH (average) [1, 5]: less than 0.5 IU/L | daily blood levels of LH (average) [1, 5]: less than 0.5 IU/L | daily blood levels of testosterone [1, 5]: about 1.0 nmol/liter | mean serum T concentration (testosterone) ([1]; two or four implants): very low testosterone levels | release rate ([3]; 4.4 cm implant, drug load 112±4 mg MENT Ac, based on an in vivo study): approximately 500 micrograms per implant per day | bioavailability from implants ([3]; certain subcutaneous implants, MENT Ac compared with MENT): superior in terms of bioavailability | hydrolysis to MENT ([3]; in vivo): readily hydrolyzed to MENT
